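Test compounds were applied to cells in 96-well plates for 48 hours at 5 doses. Here, GI50 denotes the concentration required for 50% inhibition of growth.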 Calls of active or inactive are those of the source. Cut-off read from the data, not from the text of the source: active = GI50 up to about 1.1 µM and inactive = higher.
What was measured:
Assay in all cases: inhibition of tumour cell growth, NCI panel, 48 h
[1] = system: 786-0
[2] = system: A498
[3] = system: A549
[4] = system: ACHN
[5] = system: BT-549
[6] = system: CAKI-1
[7] = system: CCRF-CEM
[8] = system: COLO 205
[9] = system: DU-145
[10] = system: EKVX
[11] = system: HCT-116
[12] = system: HCT-15
[13] = system: HL-60
[14] = system: HOP-62
[15] = system: HOP-92
[16] = system: HT-29
[17] = system: Hs-578T
[18] = system: IGROV-1
[19] = system: K562
[20] = system: KM12
[21] = system: LOX IMVI
[22] = system: M14
[23] = system: MCF7
[24] = system: MDA-MB-231
[25] = system: MDA-MB-435
[26] = system: MDA-N
[27] = system: MOLT-4
[28] = system: Malme-3M
[29] = system: NCI-H226
[30] = system: NCI-H23
[31] = system: NCI-H460
[32] = system: NCI-H522
[33] = system: NCI/ADR-RES
[34] = system: OVCAR-3
[35] = system: OVCAR-4
[36] = system: OVCAR-5
[37] = system: OVCAR-8
[38] = system: PC-3
[39] = system: RPMI-8226
[40] = system: RXF 393
[41] = system: SF-268
[42] = system: SF-295
[43] = system: SF-539
[44] = system: SK-MEL-28
[45] = system: SK-MEL-2
[46] = system: SK-MEL-5
[47] = system: SK-OV-3
[48] = system: SN12C
[49] = system: SNB-19
[50] = system: SNB-75
[51] = system: SR
[52] = system: SW-620
[53] = system: T47D
[54] = system: TK-10
[55] = system: U-251
[56] = system: UACC-257
[57] = system: UACC-62
[58] = system: HCC 2998
[59] = system: UO-31

N/C(=N\Nc1nc2cc([N+](=O)[O-])ccc2o1)c1ccccn1
GI50 [1]: 89.7 nM (active)
GI50 [2]: 248 nM (active)
GI50 [3]: 163 nM (active)
GI50 [4]: 80.2 nM (active)
GI50 [5]: 335 nM (active)
GI50 [6]: 160 nM (active)
GI50 [7]: < 22.3 nM (active)
GI50 [8]: 36.6 nM (active)
GI50 [9]: 182 nM (active)
GI50 [10]: 25.7 nM (active)
GI50 [11]: 36.9 nM (active)
GI50 [12]: 28.7 nM
GI50 [13]: 59.4 nM (active)
GI50 [14]: 232 nM (active)
GI50 [15]: 242 nM (active)
GI50 [16]: 49.3 nM (active)
GI50 [17]: 4310 nM (inactive)
GI50 [18]: 147 nM (active)
GI50 [19]: 67.3 nM (active)
GI50 [20]: 372 nM (active)
GI50 [21]: 71 nM (active)
GI50 [22]: 144 nM (active)
GI50 [23]: 120 nM (active)
GI50 [24]: 114 nM (active)
GI50 [25]: 551 nM (active)
GI50 [26]: 189 nM (active)
GI50 [27]: 62.1 nM (active)
GI50 [28]: 401 nM (active)
GI50 [29]: 418 nM (active)
GI50 [30]: 229 nM (active)
GI50 [31]: 46.8 nM (active)
GI50 [32]: 43 nM (active)
GI50 [33]: 40.4 nM (active)
GI50 [34]: 42.2 nM (active)
GI50 [35]: 179 nM (active)
GI50 [36]: 137 nM (active)
GI50 [37]: 47.4 nM (active)
GI50 [38]: 122 nM (active)
GI50 [39]: 123 nM (active)
GI50 [40]: 62.2 nM (active)
GI50 [41]: 73.8 nM (active)
GI50 [42]: 207 nM (active)
GI50 [43]: 124 nM (active)
GI50 [44]: 222 nM (active)
GI50 [45]: 167 nM (active)
GI50 [46]: 157 nM (active)
GI50 [47]: 403 nM (active)
GI50 [48]: 189 nM (active)
GI50 [49]: 506 nM (active)
GI50 [50]: 817 nM (active)
GI50 [51]: 13 nM (active)
GI50 [52]: 113 nM (active)
GI50 [53]: 73 nM (active)
GI50 [54]: 193 nM (active)
GI50 [55]: 96.6 nM (active)
GI50 [56]: 92.9 nM (active)
GI50 [57]: 57.4 nM (active)

c1ccc2c3c(c(N4CCOCC4)nc2c1)CCCC3
GI50 [1]: 32800 nM (inactive)
GI50 [2]: 24000 nM (inactive)
GI50 [3]: 43100 nM (inactive)
GI50 [4]: 41200 nM (inactive)
GI50 [5]: 39700 nM (inactive)
GI50 [6]: 64700 nM (inactive)
GI50 [7]: 31900 nM (inactive)
GI50 [8]: 20000 nM (inactive)
GI50 [9]: 33300 nM (inactive)
GI50 [10]: 12500 nM (inactive)
GI50 [58]: 32400 nM (inactive)
GI50 [11]: 40600 nM (inactive)
GI50 [12]: 35300 nM
GI50 [13]: 14200 nM (inactive)
GI50 [14]: 92500 nM (inactive)
GI50 [15]: 67100 nM (inactive)
GI50 [16]: 22700 nM (inactive)
GI50 [17]: 76600 nM (inactive)
GI50 [18]: > 100000 nM (inactive)
GI50 [19]: 49800 nM (inactive)
GI50 [20]: 38200 nM (inactive)
GI50 [21]: 39900 nM (inactive)
GI50 [22]: 50700 nM (inactive)
GI50 [23]: 29500 nM (inactive)
GI50 [24]: 32100 nM (inactive)
GI50 [25]: 48600 nM (inactive)
GI50 [26]: 50400 nM (inactive)
GI50 [27]: 30000 nM (inactive)
GI50 [28]: 75200 nM (inactive)
GI50 [29]: 19600 nM (inactive)
GI50 [30]: 56500 nM (inactive)
GI50 [31]: 34700 nM (inactive)
GI50 [32]: 29700 nM (inactive)
GI50 [33]: 29900 nM (inactive)
GI50 [34]: 36600 nM (inactive)
GI50 [35]: 49900 nM (inactive)
GI50 [36]: 15100 nM (inactive)
GI50 [37]: 57500 nM (inactive)
GI50 [38]: 36600 nM (inactive)
GI50 [40]: 19800 nM (inactive)
GI50 [41]: 66500 nM (inactive)
GI50 [42]: 39600 nM (inactive)
GI50 [43]: 20800 nM (inactive)
GI50 [44]: 85100 nM (inactive)
GI50 [45]: 42800 nM (inactive)
GI50 [46]: 20200 nM (inactive)
GI50 [47]: 86100 nM (inactive)
GI50 [48]: 34200 nM (inactive)
GI50 [49]: 36900 nM (inactive)
GI50 [50]: 15400 nM (inactive)
GI50 [51]: 46800 nM (inactive)
GI50 [52]: 43800 nM (inactive)
GI50 [53]: 16000 nM (inactive)
GI50 [54]: 63400 nM (inactive)
GI50 [55]: 36600 nM (inactive)
GI50 [56]: 40800 nM (inactive)
GI50 [57]: 55700 nM (inactive)
GI50 [59]: 41200 nM (inactive)

COc1cc2c(cc1OC(=O)c1cc3ccccc3[nH]1)N=C[C@@H]1CCCN1C2=O
GI50 [1]: 261 nM (active)
GI50 [2]: 219 nM (active)
GI50 [3]: 662 nM (active)
GI50 [4]: 244 nM (active)
GI50 [5]: 638 nM (active)
GI50 [6]: 294 nM (active)
GI50 [7]: 255 nM (active)
GI50 [8]: 202 nM (active)
GI50 [9]: 425 nM (active)
GI50 [10]: 841 nM (active)
GI50 [58]: 269 nM (active)
GI50 [11]: 410 nM (active)
GI50 [12]: 475 nM
GI50 [14]: 363 nM (active)
GI50 [15]: 542 nM (active)
GI50 [16]: 185 nM (active)
GI50 [17]: 1300 nM (inactive)
GI50 [18]: 274 nM (active)
GI50 [19]: 306 nM (active)
GI50 [20]: 433 nM (active)
GI50 [21]: 332 nM (active)
GI50 [22]: 180 nM (active)
GI50 [23]: 397 nM (active)
GI50 [24]: 418 nM (active)
GI50 [25]: 316 nM (active)
GI50 [26]: 194 nM (active)
GI50 [27]: 180 nM (active)
GI50 [28]: 398 nM (active)
GI50 [29]: 809 nM (active)
GI50 [30]: 370 nM (active)
GI50 [31]: 344 nM (active)
GI50 [32]: 157 nM (active)
GI50 [33]: 461 nM (active)
GI50 [34]: 296 nM (active)
GI50 [35]: 409 nM (active)
GI50 [36]: 255 nM (active)
GI50 [37]: 462 nM (active)
GI50 [38]: 585 nM (active)
GI50 [39]: 334 nM (active)
GI50 [40]: 165 nM (active)
GI50 [41]: 706 nM (active)
GI50 [42]: 1030 nM (active)
GI50 [43]: 281 nM (active)
GI50 [44]: 531 nM (active)
GI50 [45]: 224 nM (active)
GI50 [46]: 175 nM (active)
GI50 [47]: 1350 nM (inactive)
GI50 [48]: 221 nM (active)
GI50 [49]: 352 nM (active)
GI50 [50]: 1410 nM (inactive)
GI50 [51]: 174 nM (active)
GI50 [52]: 325 nM (active)
GI50 [53]: 851 nM (active)
GI50 [54]: 355 nM (active)
GI50 [55]: 292 nM (active)
GI50 [56]: 268 nM (active)
GI50 [57]: 269 nM (active)
GI50 [59]: 129 nM (active)

Reference: ChEMBL document CHEMBL1201862, “PubChem BioAssay data set” (2004)
